For 37 compounds, IC50 results are on record in patent US9221809B2 (MERCK SHARP & DOHME CORP., priority 2011, dated 2015).

What is called IC50 is the concentration at which inhibition is half-maximal.

The assay addresses IRAK4 (Homo sapiens (Human), UniProt Q9NWZ3). Kind of assay: IRAK4 kinase activity, IMAP fluorescence polarization assay. The class given is biochemical. As to conditions: 100 μM ATP; read-out: IRAK4 IC50. The method, boiled down:
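GST-tagged IRAK4 at 0.5 nM phosphorylates 100 nM fluorescent peptide substrate with 100 μM ATP in pH 7.2 Tris buffer containing MgCl2, DTT and Tween 20, 30 min at 25 °C. Reaction stopped with IMAP binding reagent; phosphorylation read as increased fluorescence polarization.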
For orientation: Fluorescence polarisation rises when a labelled molecule tumbles more slowly, as on binding a larger partner.

IRAK4, sequence (Q9NWZ3 whole entry): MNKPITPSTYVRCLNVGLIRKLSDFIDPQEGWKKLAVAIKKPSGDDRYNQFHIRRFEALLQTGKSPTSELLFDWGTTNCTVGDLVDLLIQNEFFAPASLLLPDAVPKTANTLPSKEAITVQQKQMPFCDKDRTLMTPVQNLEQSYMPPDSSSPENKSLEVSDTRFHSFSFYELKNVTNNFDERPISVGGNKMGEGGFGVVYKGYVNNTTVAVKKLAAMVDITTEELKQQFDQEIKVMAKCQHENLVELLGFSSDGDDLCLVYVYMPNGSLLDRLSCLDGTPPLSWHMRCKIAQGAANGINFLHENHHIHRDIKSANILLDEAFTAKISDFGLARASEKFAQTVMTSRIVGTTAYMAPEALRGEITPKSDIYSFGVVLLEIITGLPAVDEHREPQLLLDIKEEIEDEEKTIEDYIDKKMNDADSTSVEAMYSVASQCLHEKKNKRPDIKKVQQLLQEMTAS

Turning to `CS(=O)(=O)C1CN(c2nc(N[C@@H]3CCCNC3)c(-c3ccc4ccccc4n3)c(=O)[nH]2)C1` [Example 169, (R)-2-(3-(methylsulfonyl)azetidin-1-yl)-6-(piperidin-3-ylamino)-5-(quinolin-2-yl)pyrimidin-4(3H)-one], the IC50 worked out at 32 nM.

Consider `O=c1[nH]c(N2CC(O)(C(F)(F)F)C2)nc(N[C@@H]2CCCNC2)c1-c1ccc2ccccc2n1` [Example 170, (R)-2-(3-hydroxy-3-(trifluoromethyl)azetidin-1-yl)-6-(piperidin-3-ylamino)-5-(quinolin-2-yl)pyrimidin-4(3H)-one], for which the IC50 was determined as 18 nM.

As for `CC1(O)CN(c2nc(N[C@@H]3CCCNC3)c(-c3ccc4ccccc4n3)c(=O)[nH]2)C1` [Example 171, (R)-2-(3-hydroxy-3-methylazetidin-1-yl)-6-(piperidin-3-ylamino)-5-(quinolin-2-yl)pyrimidin-4(3H)-one], the IC50 was found to be 3150 nM.

`CC(C)(O)C1CN(c2nc(N[C@@H]3CCCNC3)c(-c3ccc4ccccc4n3)c(=O)[nH]2)C1` [Example 172, (R)-2-(3-(2-hydroxypropan-2-yl)azetidin-1-yl)-6-(piperidin-3-ylamino)-5-(quinolin-2-yl)pyrimidin-4(3H)-one]: the IC50 turned out to be 42 nM.

As for `CO[C@H]1CN(c2nc(N[C@@H]3CCCNC3)c(-c3ccc4ccccc4n3)c(=O)[nH]2)C[C@@H]1O` [Example 173, 2-((3S,4S)-3-hydroxy-4-methoxypyrrolidin-1-yl)-6-((R)-piperidin-3-ylamino)-5-(quinolin-2-yl)pyrimidin-4(3H)-one], the IC50 turned out to be 40 nM.

As to `O=c1[nH]c(N2CC3CC2CS(=O)(=O)C3)nc(N[C@@H]2CCCNC2)c1-c1ccc2ccccc2n1` (stereo partly drawn) [Example 174, 2-(3,3-dioxido-3-thia-6-azabicyclo[3.2.1]octan-6-yl)-6-((R)-piperidin-3-ylamino)-5-(quinolin-2-yl)pyrimidin-4(3H)-one], the IC50 worked out at 139 nM.

Regarding `O=c1[nH]c(N2C[C@H](F)[C@@H](F)C2)nc(N[C@@H]2CCCNC2)c1-c1ccc2ccccc2n1` [Example 175, 2-((3S,4S)-3,4-difluoropyrrolidin-1-yl)-6-((R)-piperidin-3-ylamino)-5-(quinolin-2-yl)pyrimidin-4(3H)-one], the IC50 was determined as 17 nM.

As for `COC1(C)CN(c2nc(N[C@@H]3CCCNC3)c(-c3ccc4ccccc4n3)c(=O)[nH]2)C1` [Example 176, (R)-2-(3-methoxy-3-methylazetidin-1-yl)-6-(piperidin-3-ylamino)-5-(quinolin-2-yl)pyrimidin-4(3H)-one], the IC50 was 22 nM.

As to `O=c1[nH]c(N2CC[C@H](F)C2)nc(N[C@@H]2CCCNC2)c1-c1ccc2ccccc2n1` [Example 177, 2-((S)-3-fluoropyrrolidin-1-yl)-6-((R)-piperidin-3-ylamino)-5-(quinolin-2-yl)pyrimidin-4(3H)-one], the IC50 came to 13 nM.

As to `CO[C@H]1CCN(c2nc(N[C@@H]3CCCNC3)c(-c3ccc4ccccc4n3)c(=O)[nH]2)C1` [Example 178, 2-((S)-3-methoxypyrrolidin-1-yl)-6-((R)-piperidin-3-ylamino)-5-(quinolin-2-yl)pyrimidin-4(3H)-one], the 50% inhibitory concentration (IC50) was found to be 35 nM.

For the compound `O=c1[nH]c(N2CC[C@@H](CO)C2)nc(N[C@@H]2CCCNC2)c1-c1ccc2ccccc2n1` [Example 179, 2-((R)-3-(hydroxymethyl)pyrrolidin-1-yl)-6-((R)-piperidin-3-ylamino)-5-(quinolin-2-yl)pyrimidin-4(3H)-one], the IC50 was 13 nM.

As to `O=c1[nH]c(N2CC[C@H](CO)C2)nc(N[C@@H]2CCCNC2)c1-c1ccc2ccccc2n1` [Example 180, 2-((S)-3-(hydroxymethyl)pyrrolidin-1-yl)-6-((R)-piperidin-3-ylamino)-5-(quinolin-2-yl)pyrimidin-4(3H)-one], the IC50 was found to be 15 nM.

Regarding `CC1(O)CCN(c2nc(N[C@@H]3CCCNC3)c(-c3ccc4ccccc4n3)c(=O)[nH]2)C1` (stereo partly drawn) [Example 181, 2-(3-hydroxy-3-methylpyrrolidin-1-yl)-6-((R)-piperidin-3-ylamino)-5-(quinolin-2-yl)pyrimidin-4(3H)-one], the half-inhibitory concentration (IC50) was found to be 31 nM.

As for `O=c1[nH]c(N2CCCC2c2ccncc2)nc(N[C@@H]2CCCNC2)c1-c1ccc2ccccc2n1` (stereo partly drawn) [Example 182, 6-((R)-piperidin-3-ylamino)-2-(2-(pyridin-4-yl)pyrrolidin-1-yl)-5-(quinolin-2-yl)pyrimidin-4(3H)-one], the IC50 was 3180 nM.

For `O=c1[nH]c(N2CCC[C@H]2CF)nc(N[C@@H]2CCCNC2)c1-c1ccc2ccccc2n1` [Example 183, 2-((S)-2-(fluoromethyl)pyrrolidin-1-yl)-6-((R)-piperidin-3-ylamino)-5-(quinolin-2-yl)pyrimidin-4(3H)-one], the IC50 was determined as 85 nM.

As for `CC(C)(O)C1CCN(c2nc(N[C@@H]3CCCNC3)c(-c3ccc4ccccc4n3)c(=O)[nH]2)C1` (stereo partly drawn) [Example 184, 2-(3-(2-hydroxypropan-2-yl)pyrrolidin-1-yl)-6-((R)-piperidin-3-ylamino)-5-(quinolin-2-yl)pyrimidin-4(3H)-one], the half-maximal inhibitory concentration (IC50) worked out at 42 nM.

Take `CN1CCC2CCN(c3nc(N[C@@H]4CCCNC4)c(-c4ccc5ccccc5n4)c(=O)[nH]3)C2C1` (stereo partly drawn) [Example 185, 2-(6-methyloctahydro-1H-pyrrolo[2,3-c]pyridin-1-yl)-6-((R)-piperidin-3-ylamino)-5-(quinolin-2-yl)pyrimidin-4(3H)-one]: the IC50 worked out at 851 nM.

As for `COC1CCN(c2nc(N[C@@H]3CCCNC3)c(-c3ccc4ccccc4n3)c(=O)[nH]2)C1` (stereo partly drawn) [Example 186, 2-(3-methoxypyrrolidin-1-yl)-6-((R)-piperidin-3-ylamino)-5-(quinolin-2-yl)pyrimidin-4(3H)-one], the 50% inhibitory concentration (IC50) turned out to be 26 nM.

On to `O=c1[nH]c(N2CCC(c3ccccc3)CC2)nc(N[C@@H]2CCCNC2)c1-c1ccc2ccccc2n1` [Example 187, (R)-2-(4-phenylpiperidin-1-yl)-6-(piperidin-3-ylamino)-5-(quinolin-2-yl)pyrimidin-4(3H)-one], for which the IC50 was 16 nM.

On to `Cc1ccccc1C1CCN(c2nc(N[C@@H]3CCCNC3)c(-c3ccc4ccccc4n3)c(=O)[nH]2)CC1` [Example 188, (R)-6-(piperidin-3-ylamino)-5-(quinolin-2-yl)-2-(4-(o-tolyl)piperidin-1-yl)pyrimidin-4(3H)-one], for which the IC50 worked out at 17 nM.

Turning to `COc1ccccc1C1CCN(c2nc(N[C@@H]3CCCNC3)c(-c3ccc4ccccc4n3)c(=O)[nH]2)CC1` [Example 189, (R)-2-(4-(2-methoxyphenyl)piperidin-1-yl)-6-(piperidin-3-ylamino)-5-(quinolin-2-yl)pyrimidin-4(3H)-one], the IC50 was 13 nM.

For the compound `O=c1[nH]c(N2CCC(c3ccccc3C(F)(F)F)CC2)nc(N[C@@H]2CCCNC2)c1-c1ccc2ccccc2n1` [Example 190, (R)-6-(piperidin-3-ylamino)-5-(quinolin-2-yl)-2-(4-(2-(trifluoromethyl)phenyl)piperidin-1-yl)pyrimidin-4(3H)-one], the concentration for half-maximal inhibition (IC50) amounted to 32 nM.

In the case of `Cc1nsc(C2CCN(c3nc(N[C@@H]4CCCNC4)c(-c4ccc5ccccc5n4)c(=O)[nH]3)CC2)n1` [Example 191, (R)-2-(4-(3-methyl-1,2,4-thiadiazol-5-yl)piperidin-1-yl)-6-(piperidin-3-ylamino)-5-(quinolin-2-yl)pyrimidin-4(3H)-one], the IC50 is 138 nM.

In the case of `Cc1cc(C2CCN(c3nc(N[C@@H]4CCCNC4)c(-c4ccc5ccccc5n4)c(=O)[nH]3)CC2)[nH]n1` [Example 192, (R)-2-(4-(3-methyl-1H-pyrazol-5-yl)piperidin-1-yl)-6-(piperidin-3-ylamino)-5-(quinolin-2-yl)pyrimidin-4(3H)-one], the IC50 came out at 66 nM.

With `O=c1[nH]c(N2CCC(c3cccc(F)n3)CC2)nc(N[C@@H]2CCCNC2)c1-c1ccc2ccccc2n1` [Example 193, (R)-2-(4-(6-fluoropyridin-2-yl)piperidin-1-yl)-6-(piperidin-3-ylamino)-5-(quinolin-2-yl)pyrimidin-4(3H)-one], the IC50 was 45 nM.

Consider `O=c1[nH]c(N2CC3CC2CN3)nc(N[C@@H]2CCCNC2)c1-c1ccc2ccccc2n1` (stereo partly drawn) [Example 194, 2-(2,5-diazabicyclo[2.2.1]heptan-2-yl)-6-((R)-piperidin-3-ylamino)-5-(quinolin-2-yl)pyrimidin-4(3H)-one], for which the IC50 was 169 nM.

For the compound `COc1ccc(N2CC3CC2CN3c2nc(N[C@@H]3CCCNC3)c(-c3ccc4ccccc4n3)c(=O)[nH]2)cc1` (stereo partly drawn) [Example 195, 2-(5-(4-methoxyphenyl)-2,5-diazabicyclo[2.2.1]heptan-2-yl)-6-((R)-piperidin-3-ylamino)-5-(quinolin-2-yl)pyrimidin-4(3H)-one], the IC50 was found to be 757 nM.

Turning to `O=c1[nH]c(N2CCOCC2)nc(N[C@@H]2CCCNC2)c1-c1nc2ccccc2o1` [Example 196], the IC50 turned out to be 1800 nM.

Turning to `CC(C)(C)c1cccc(-c2c(N[C@@H]3CCCNC3)nc(N3CCOCC3)[nH]c2=O)n1` [Example 197], the half-maximal inhibitory concentration (IC50) is 537 nM.

In the case of `O=c1[nH]c(N2CCOCC2)nc(N[C@@H]2CCCNC2)c1-c1cncc(-n2cccc2)n1` [Example 198], the IC50 came to 3460 nM.

On to `O=c1[nH]c(N2CCOCC2)nc(N[C@@H]2CCCNC2)c1-c1ccccn1` [Example 199], for which the IC50 worked out at 4760 nM.

As to `O=c1[nH]c(N2CCOCC2)nc(N[C@@H]2CCCNC2)c1-c1nc(-c2cccc(C(F)(F)F)c2)cs1` [Example 200], the IC50 came out at 141 nM.

As for `O=c1[nH]c(N2CCOCC2)nc(N[C@@H]2CCCNC2)c1-c1nc(-c2ccccc2F)cs1` [Example 201], the IC50 is 60 nM.

Consider `O=c1[nH]c(N2CCOCC2)nc(N[C@@H]2CCCNC2)c1-c1nc(-c2ccc(Cl)cc2)cs1` [Example 202], for which the IC50 was found to be 153 nM.

As for `O=c1[nH]c(N2CCOCC2)nc(N[C@@H]2CCCNC2)c1-c1nc(-c2cc(F)cc(F)c2)cs1` [Example 203], the IC50 was 99 nM.

`O=c1[nH]c(N2CCOCC2)nc(N[C@@H]2CCCNC2)c1-c1nc(-c2cccc(F)c2)cs1` [Example 204]: the concentration for half-maximal inhibition (IC50) turned out to be 40 nM.

Regarding `O=c1[nH]c(N2CCOCC2)nc(N[C@@H]2CCCNC2)c1-c1nc(-c2cc(F)ccc2F)cs1` [Example 205], the IC50 was 90 nM.
